pIC50: −log10 of the molar value. Starred links: 1 amine or outer side, 2 acyl side, 3 side chain; linkers in the order of their positions; H or OH if unused. Non-standard residues stand in square brackets, D forms with d. Residues, ends and D or L forms follow the SMILES beside them. Phe(4-(5-CO2H-2-pyrimidyl)) = N[C@@H](Cc1ccc(-c2ncc(C(=O)O)cn2)cc1)C(=O)O; dPro(4R-(4-pyridylmethyl)) = O=C(O)[C@H]1C[C@@H](Cc2ccncc2)CN1; Trp(βS-Me,4-F) = C[C@@H](c1c[nH]c2cccc(F)c12)[C@H](N)C(=O)O; Bip(4'-COOH) = N[C@@H](Cc1ccc(-c2ccc(C(=O)O)cc2)cc1)C(=O)O; X43 = Cc1nocc1-c1ccc(C[C@H]2CCN([*:1])[C@H]2C(=O)[*:2])cc1; dPro(4R-Bzl(4-F)) = O=C(O)[C@H]1C[C@@H](Cc2ccc(F)cc2)CN1; dPro(3S-(4-F-Bn)) = O=C(O)[C@@H]1NCC[C@@H]1Cc1ccc(F)cc1; X13 = O=C(O)c1ccc(C[C@H](N[*:1])C(=O)[*:2])cc1Cl; X4 = O=C([C@H]1[C@@H](Cc2ccncc2)CCN1[*:1])[*:2]; X5 = O=C([C@H]1C[C@@H](Cc2ccccc2)CN1[*:1])[*:2]; Ala(piperazin-1-yl) = N[C@@H](CN1CCNCC1)C(=O)O; Ala(pyrimidin-5-yl) = N[C@@H](Cc1cncnc1)C(=O)O; Phe(4-COOH) = N[C@@H](Cc1ccc(C(=O)O)cc1)C(=O)O; dαMeDab = C[C@](CCN[*:3])(N[*:1])C(=O)[*:2]; Pro(cis-4-F) = O=C(O)[C@@H]1C[C@H](F)CN1; X46 = O=C([C@@H](Cc1cncnc1)N[*:1])[*:2]; Phe(4-F) = N[C@@H](Cc1ccc(F)cc1)C(=O)O; Ala(4-THP) = N[C@@H](CC1CCOCC1)C(=O)O; d(αMeD) = C[C@@](N)(CC(=O)O)C(=O)O; 4Pal = N[C@@H](Cc1ccncc1)C(=O)O; d(αMeS) = C[C@@](N)(CO)C(=O)O; Dab = NCC[C@H](N)C(=O)O; Aib = CC(C)(N)C(=O)O
Each compound was assayed against T1, IL-1β (Homo sapiens, UniProt P01584) (assay: IL-6 assay in MRC5 cells: inhibition of IL-1β induced IL-6 secretion (AlphaLISA)). Conditions: inhibition of IL-1β induced IL-6 secretion in MRC5 cells; compound pre-incubated 1 hour with recombinant human IL-1β; read-out: MRC5 IC50.
T1 construct: purchased BioLegend 579404
T1 sequence (P01584 117-269): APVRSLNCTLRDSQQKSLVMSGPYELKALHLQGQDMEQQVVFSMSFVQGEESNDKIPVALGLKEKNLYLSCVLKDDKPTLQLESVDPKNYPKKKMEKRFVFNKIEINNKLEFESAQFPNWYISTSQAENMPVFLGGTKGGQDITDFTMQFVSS
Assay type: cell-based
Summary of the method: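 Compound was pre-incubated 1 h at ambient temperature with recombinant human IL-1β at 2λ EC80 before adding human lung fibroblast MRC5 cells (3000/well) in EMEM with 0.025% BSA. After overnight culture at 37 °C, 5% CO2, secreted IL-6 in conditioned medium was measured by AlphaLISA; IC50 from 4-parameter logistic fits.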

| pIC50 | Compound |
| --- | --- |
| 10.89 | COC[C@@]1(C)NC(=O)[C@H](Cc2c[nH]c3ccccc23)NC(=O)[C@H](CO)NC(=O)C(C)(C)NC(=O)[C@H]([C@@H](C)c2c[nH]c3cccc(F)c23)NC(=O)[C@@H]2C[C@H](F)CN2C(=O)CNC(=O)[C@H](Cc2ccc(C(=O)O)cc2)NC(=O)[C@H](Cc2ccncc2)NC(=O)[C@H](Cc2ccc(-c3ccc(C(=O)O)cc3)cc2)NC(=O)[C@H]2C[C@@H](Cc3ccncc3)CN2C(=O)CNC(=O)[C@H](CCN)NC(=O)[C@H](CCC(N)=O)NC(=O)[C@H](Cc2cncnc2)NC1=O [Example 260] (cyclo([Bip(4'-COOH)][4Pal][Phe(4-COOH)]G[Pro(cis-4-F)][Trp(βS-Me,4-F)][Aib]SW[d(αMeS)](Me)[Ala(pyrimidin-5-yl)]Q[Dab]G[dPro(4R-(4-pyridylmethyl))])) |
| 10.52 | C[C@@H](c1c[nH]c2cccc(F)c12)[C@@H]1NC(=O)[C@@H]2C[C@H](F)CN2C(=O)CNC(=O)[C@H](Cc2ccc(C(=O)O)cc2)NC(=O)[C@H](Cc2ccncc2)NC(=O)[C@H](Cc2ccc(-c3ccc(C(=O)O)cc3)cc2)NC(=O)[C@H]2[C@@H](Cc3ccncc3)CCN2C(=O)CNC(=O)[C@H](CCN)NC(=O)[C@H](CCC(N)=O)NC(=O)[C@@H](Cc2cncnc2)NC(=O)C(C)(C)NC(=O)[C@H](Cc2c[nH]c3ccccc23)NC(=O)[C@H](CO)NC(=O)C(C)(C)NC1=O [Example 233] (cyclo([Bip(4'-COOH)][4Pal][Phe(4-COOH)]G[Pro(cis-4-F)][Trp(βS-Me,4-F)][Aib]SW[Aib][X46]Q[Dab]G[X4])) |
| 10.64 | C[C@@H](c1c[nH]c2cccc(F)c12)[C@@H]1NC(=O)[C@@H]2C[C@H](F)CN2C(=O)CNC(=O)[C@H](Cc2ccc(C(=O)O)cc2)NC(=O)[C@H](Cc2ccncc2)NC(=O)[C@H](Cc2ccc(F)cc2)NC(=O)[C@H]2[C@@H](Cc3ccc(F)cc3)CCN2C(=O)CNC(=O)[C@H](CCN)NC(=O)[C@H](CCC(N)=O)NC(=O)[C@H](Cc2cncnc2)NC(=O)[C@@](C)(CC(=O)O)NC(=O)[C@H](Cc2c[nH]c3ccccc23)NC(=O)[C@H](CO)NC(=O)C(C)(C)NC1=O [Example 277] (cyclo([Phe(4-F)][4Pal][Phe(4-COOH)]G[Pro(cis-4-F)][Trp(βS-Me,4-F)][Aib]SW[d(αMeD)][Ala(pyrimidin-5-yl)]Q[Dab]G[dPro(3S-(4-F-Bn))])) |

Same assay, conditions: inhibition of IL-1β induced IL-6 secretion in MRC5 cells; read-out: MRC5 IC50

| pIC50 | Compound |
| --- | --- |
| 10.68 | Cc1nocc1-c1ccc(C[C@H]2CCN3C(=O)CNC(=O)[C@H](CCN)NC(=O)[C@H](CCC(N)=O)NC(=O)[C@H](Cc4cncnc4)NC(=O)C(C)(C)NC(=O)[C@H](Cc4c[nH]c5ccccc45)NC(=O)[C@H](CCC(=O)O)NC(=O)C(C)(C)NC(=O)[C@H]([C@@H](C)c4c[nH]c5cccc(F)c45)NC(=O)[C@@H]4C[C@H](F)CN4C(=O)CNC(=O)[C@H](Cc4ccc(C(=O)O)cc4)NC(=O)[C@H](Cc4ccncc4)NC(=O)[C@H](Cc4ccc(-c5ccc(C(=O)O)cc5)cc4)NC(=O)[C@@H]23)cc1 [Example 62] (cyclo([Bip(4'-COOH)][4Pal][Phe(4-COOH)]G[Pro(cis-4-F)][Trp(βS-Me,4-F)][Aib]EW[Aib][Ala(pyrimidin-5-yl)]Q[Dab]G[X43])) |
| 10.72 | C[C@@H](c1c[nH]c2cccc(F)c12)[C@@H]1NC(=O)[C@@H]2C[C@H](F)CN2C(=O)CNC(=O)[C@H](Cc2ccc(C(=O)O)cc2)NC(=O)[C@H](Cc2ccncc2)NC(=O)[C@H](Cc2ccc(-c3ccc(C(=O)O)cc3)cc2)NC(=O)[C@H]2C[C@@H](Cc3ccc(F)cc3)CN2C(=O)CNC(=O)[C@H](CCN)NC(=O)[C@H](CCC(N)=O)NC(=O)[C@H](Cc2cncnc2)NC(=O)[C@@](C)(CCN)NC(=O)[C@H](Cc2c[nH]c3ccccc23)NC(=O)[C@H](CO)NC(=O)C(C)(C)NC1=O [Example 142] (cyclo([Bip(4'-COOH)][4Pal][Phe(4-COOH)]G[Pro(cis-4-F)][Trp(βS-Me,4-F)][Aib]SW[dαMeDab][Ala(pyrimidin-5-yl)]Q[Dab]G[dPro(4R-Bzl(4-F))])) |
| 10.96 | C[C@@H](c1c[nH]c2cccc(F)c12)[C@@H]1NC(=O)[C@@H]2C[C@H](F)CN2C(=O)CNC(=O)[C@H](Cc2ccc(C(=O)O)cc2)NC(=O)[C@H](Cc2ccncc2)NC(=O)[C@H](Cc2ccc(-c3ccc(C(=O)O)cc3)cc2)NC(=O)[C@H]2[C@@H](Cc3ccc(F)cc3)CCN2C(=O)CNC(=O)[C@H](CCN)NC(=O)[C@H](CCC(N)=O)NC(=O)[C@H](Cc2cncnc2)NC(=O)[C@@](C)(CC(=O)O)NC(=O)[C@H](Cc2c[nH]c3ccccc23)NC(=O)[C@H](CO)NC(=O)C(C)(C)NC1=O [Example 331] (cyclo([Bip(4'-COOH)][4Pal][Phe(4-COOH)]G[Pro(cis-4-F)][Trp(βS-Me,4-F)][Aib]SW[d(αMeD)][Ala(pyrimidin-5-yl)]Q[Dab]G[dPro(3S-(4-F-Bn))])) |

Continued, compound first:

| Compound | pIC50 |
| --- | --- |
| C[C@@H](c1c[nH]c2cccc(F)c12)[C@@H]1NC(=O)[C@@H]2C[C@H](F)CN2C(=O)CNC(=O)[C@H](Cc2ccc(C(=O)O)cc2)NC(=O)[C@H](Cc2ccncc2)NC(=O)[C@H](Cc2ccc(-c3ccc(C(=O)O)cc3)cc2)NC(=O)[C@H]2C[C@@H](Cc3ccc(F)cc3)CN2C(=O)CNC(=O)[C@H](CO)NC(=O)[C@H](CCC(N)=O)NC(=O)[C@H](CN2CCNCC2)NC(=O)C(C)(C)NC(=O)[C@H](Cc2c[nH]c3ccccc23)NC(=O)[C@H](CCC(=O)O)NC(=O)C(C)(C)NC1=O [Example 122] (cyclo([Bip(4'-COOH)][4Pal][Phe(4-COOH)]G[Pro(cis-4-F)][Trp(βS-Me,4-F)][Aib]EW[Aib][Ala(piperazin-1-yl)]QSG[dPro(4R-Bzl(4-F))])) | 10.72 |
| C[C@@H](c1c[nH]c2cccc(F)c12)[C@@H]1NC(=O)[C@@H]2C[C@H](F)CN2C(=O)CNC(=O)[C@H](Cc2ccc(C(=O)O)c(Cl)c2)NC(=O)[C@H](Cc2ccncc2)NC(=O)[C@H](Cc2ccc(-c3ncc(C(=O)O)cn3)cc2)NC(=O)[C@H]2C[C@@H](Cc3ccncc3)CN2C(=O)CNC(=O)[C@H](CCN)NC(=O)[C@H](CCC(N)=O)NC(=O)[C@H](CC2CCOCC2)NC(=O)[C@@](C)(CC(=O)O)NC(=O)[C@H](Cc2c[nH]c3ccccc23)NC(=O)[C@H](CO)NC(=O)C(C)(C)NC1=O [Example 361] (cyclo([Phe(4-(5-CO2H-2-pyrimidyl))][4Pal][X13]G[Pro(cis-4-F)][Trp(βS-Me,4-F)][Aib]SW[d(αMeD)][Ala(4-THP)]Q[Dab]G[dPro(4R-(4-pyridylmethyl))])) | 10.66 |
| C[C@@H](c1c[nH]c2cccc(F)c12)[C@@H]1NC(=O)[C@@H]2C[C@H](F)CN2C(=O)CNC(=O)[C@H](Cc2ccc(C(=O)O)cc2)NC(=O)[C@H](Cc2ccncc2)NC(=O)[C@H](Cc2ccc(-c3ccc(C(=O)O)cc3)cc2)NC(=O)[C@H]2C[C@@H](Cc3ccccc3)CN2C(=O)CNC(=O)[C@H](CCN)NC(=O)[C@H](CCC(N)=O)NC(=O)[C@H](Cc2cncnc2)NC(=O)C(C)(C)NC(=O)[C@H](Cc2c[nH]c3ccccc23)NC(=O)[C@H](CCC(=O)O)NC(=O)C(C)(C)NC1=O [Example 31] (cyclo([Bip(4'-COOH)][4Pal][Phe(4-COOH)]G[Pro(cis-4-F)][Trp(βS-Me,4-F)][Aib]EW[Aib][Ala(pyrimidin-5-yl)]Q[Dab]G[X5])) | 10.62 |

Reference: US20260242419A1, “A CYCLIC PEPTIDE FOR TRAPPING INTERLEUKIN-1 BETA” (Merck Sharp & Dohme LLC, priority 2023, published 2026)
